The source of these data is patent US20220008449A1, “A METHOD OF MIMICKING BENEFITS OF DIETARY RESTRICTION BY TRANSIENTLY UPREGULATING ER STRESS RESPONSE” (NATIONAL INSTITUTE OF IMMUNOLOGY, priority 2018, published 2022).

Common to all, as to type: in vivo, Caenorhabditis elegans
The test system of one test is C. elegans. Description: Adult life span after transient (first 24 h) Tm or 2DG supplementation. Here is the method: Gravid adult worms, initially grown on E. coli OP50 were bleached and eggs were hatched on different RNAi plates. On reaching adulthood, 50-60 young adult worms were transferred to the similar RNAi plates in triplicates and overlaid with Fluoro-deoxyuridine (FudR) to final concentration of 0.1 mg/ml of agar (2). At the 7th Day of adulthood, sick, sluggish and slow dwelling worms were removed from the life span population and the remaining were considered as the number of subjects ‘N’. Following this, number of dead worms were scored every alternate day and plotted as % survival against the number of days. Statistical analysis for survival was conducted using Mantel-Cox Log Rank test using Oasis software. Average life span was also determined using the same method and represented as Mean life span±Standard Error Mean (S.E.M).
Overnight grown bacterial culture expressing Control or test RNAi were re-inoculated in 200 ml fresh LB media and grown at 37° C. until OD600 reached 0.5-0.6. The culture was divided in two parts (A and B) in a ratio of 1:3 and cells are pelleted separately using a centrifuge (4810R, Eppendorf, Germany) at 5000 r.p.m for 10 minutes at 4° C. Pellet from part B (150 ml) of the culture was resuspended in 1×M9 buffer containing 100 μg/ml ampicillin and 1 mM IPTG to 1/10th of its initial culture volume (for 150 ml culture, 15 ml of resuspension buffer was used) and 350 μl was seeded onto each RNAi plate and left for drying at room temperature for 24 hours.
Gravid adult worms initially grown on E. coli OP50 bacteria were bleached and eggs were re-suspended in 100-200 ul of 1×M9 buffer and standardized for the number of eggs present in a particular volume.
Entire composition of cocktail (total volume 1 ml) is mentioned as follows:
Eggs were left on rotation in this cocktail at a slow speed for 24 hrs. […] They were allowed to grow till adulthood when 100 worms belonging to each treatment regime were transferred onto FuDR containing RNAi plates and life span was scored as mentioned above. iUPR^ER efficiency was also measured on Day 2 of adulthood, as mentioned previously.
Since transient up-regulation of UPR^ER was observed, experiments were conducted to see its causal role in life span extension, as observed during DR. […] After the pharmaceutical reagent was washed off, the worms were grown on solid NGM media and post-adult life span was recorded. […] This observation supports the role of hormesis, triggered by an early ER stress as a mechanism of DR-mediated life span enhancement, in the models that were tested.

The subject of a further test is Phsp-4:gfp(zcIs4) worms. Description: Induced UPR^ER (iUPR^ER) efficiency, Phsp-4:gfp fluorescence after acute Tm challenge in adulthood. The note with it: for iUPR^ER at adulthood after Tm hormesis: acute 5 mg/mL tunicamycin treatment, day 2 of adulthood. Here is the method: Transgenic Phsp-4:gfp(zcIs4) and eat-2(ad1116);Phsp-4:gfp(zcIs4) were bleached and eggs were hatched on control RNAi. Worms were allowed to grow till adulthood and then transferred onto plates overlaid with FuDR to a final concentration of 0.1 mg/ml. […] Since Tm is dissolved in 0.05% DMSO, it was used as vehicle control. After 6 hours, 50 worms from each treatment were mounted onto 2% agarose slides and visualized using Axio-Imager M2 epifluorescent microscope with a GFP filter set (Carl Zeiss, Germany) Fluorescence of ≥20 Tm-treated and untreated worms was quantified using NIH ImageJ software. Average fluorescence of treated worms was normalized to untreated worms and plotted as normalized GFP fold induction at different days of adulthood. Similar procedure was followed to compare iUPR^ER efficiency of Phsp-4:gfp(zcIs4) on control and drl-1 RNAi on different days of adulthood.
Eggs were left on rotation in this cocktail at a slow speed for 24 hrs. Following this, the hatched L1 larvae were washed 3-4 times with 1×M9 buffer to remove traces of tunicamycin and added onto seeded control RNAi or test RNAi plates containing no reagent. They were allowed to grow till adulthood when 100 worms belonging to each treatment regime were transferred onto FuDR containing RNAi plates and life span was scored as mentioned above. iUPR^ER efficiency was also measured on Day 2 of adulthood, as mentioned previously.
Since it was observed that transient ER stress using Tm at early post-embryonic stage increased life span, it was tested whether this treatment could also lead to a better iUPR^ER efficiency with age. […] Importantly, hormetic up-regulation of the ER stress response during early developmental life leads to this increased ER efficiency contributing towards enhanced longevity during DR.

The test system of test [1] is Punc-54:polyQ40:yfp worms. The test is described as follows: PolyQ aggregate number in adult worms after transient Tm exposure. From the text:
In order to evaluate the role of DR in augmenting the ERAD and its physiological consequences, a reporter was used that expresses a stretch of 40 glutamines (Q40) tagged with a yellow fluorescent protein in C. elegans muscle. This reporter strain was crossed with eat-2(ad1116) mutant worms to generate worms carrying both the reporter transgene and the eat-2 mutation (hereafter, referred to as eat-2;PolyQ). It was observed that incorporating eat-2 mutation led to 60-80% suppression in the number of aggregates at all age points, supporting the earlier observation of alleviation in the age-associated increase in PolyQ aggregation during DR (FIG. 6A). […] Since ire-1 was a requirement for DR-mediated longevity, it was tested whether this beneficial effect conferred under DR is also dependent on this gene.
It was reported that an atypical up-regulation of UPR^ER in larvae contributes towards increased life span during DR. It was shown that pharmaceutically mimicking the transient UPR^ER up-regulation during early larval life augmented the iUPR^ER efficiency with age and increased life span. To determine whether such hormetic intervention can protect against the age-related proteostasis collapse, WT worms were exposed with a range of concentrations of Tm only during the start of larval development, as mentioned before. […]

Entries after “also recorded” stand apart in the source; their conditions may differ.

For the molecule `O=CC[C@@H](O)[C@H](O)[C@H](O)CO` [2-DG, 2-deoxy glucose], the “Effect on life span” value is “increased; also recorded: significantly increasing life span” in the test with C. elegans (WT, transient 2DG 0.0625 mM first 24 hours) and “failed to increase life span; also recorded: ire-1-dependent manner” with C. elegans (ire-1(v33), transient 2DG treatment). For the same molecule, the “Life span Mean ± SEM” value with C. elegans (Wild type, 2-DG 0.0625 mM for first 24 hours) is reported as 21.21 ± 0.37 days; in the test with C. elegans (ire-1(v33), 2-DG 0.0625 mM for first 24 hours), 20.07 ± 0.26 days. For the same molecule, the “Life span % Change” value in the test with C. elegans (Wild type, 2-DG 0.0625 vs 0 mM) is 11.69%; in the test on C. elegans (ire-1(v33), 2-DG 0.0625 vs 0 mM), −0.64%.
As to Tunicamycin [Tm], the entries for the “iUPR^ER at adulthood after Tm hormesis” value with Phsp-4:gfp(zcIs4) worms (control RNAi worms) and with Phsp-4:gfp(zcIs4) worms (pha-4 RNAi worms) were “even higher iUPR^ER” and “not able to increase the iUPR^ER response”, respectively. In addition, in the test on Phsp-4:gfp(zcIs4) worms (transient Tm 24 hours post-bleaching, challenge Tm 10 μg/ml for 6 hours on day 2), the “iUPR^ER efficiency at day 2 of adulthood” value is “increases iUPR^ER efficiency; also recorded: higher iUPR^ER efficiency”. In test [1] (Punc-54:polyQ40:yfp on control RNAi, 0.125 μg/ml and 0.25 μg/ml Tm during larval development, day 2 and day 3 of adulthood), the “Number of polyQ aggregates” value was “suppression; also recorded: significant reduction in the number of aggregates”. Besides, in test [1] (ire-1(v33);Q40:yfp worms treated with hormetic dose of Tm (0.125 μg/ml)), the “Number of polyQ puncta” value was “significantly higher puncta at all age points”. For the same molecule, the “Effect on life span” value is recorded as “sufficient to extend lifespan; also recorded: significant extension of life span” in the test on C. elegans (WT larvae, 0.125 μg/ml Tm during first 24 hours) and “cannot further increase lifespan” in the test with C. elegans (eat-2(ad1116), Tm supplementation). Moreover, the “Dependence of Tm hormesis life span extension on PHA-4” value in the test on C. elegans (WT on control or pha-4 RNAi, Tm 0.125 μg/mL initial 24 h) is listed as “suppressed; also recorded: dependent on PHA-4”. The “Dependence of Tm life span effect on ire-1” value with C. elegans (WT vs ire-1(v33), Tm 0.125 μg/ml initial 24 hours) is listed as “completely dependent on ire-1”. Moreover, the “Life span Mean ± SEM” value in the test with C. elegans (Wild type (for eat-2 hormesis expt), Tm 0.125 μg/ml for first 24 hours) is on record as 21.58 ± 0.36 days; with C. elegans (Wild type (for ire-1 hormesis expt), Tm 0.125 μg/ml for first 24 hours), 22.02 ± 0.30 days; with C. elegans (Wild type, Tm 0.125 μg/ml for first 24 hours), 21.73 ± 0.28 days; with C. elegans (eat-2 (ad1116), Tm 0.125 μg/ml for first 24 hours), 25.32 ± 0.45 days; with C. elegans (ire-1(v33), Tm 0.125 μg/ml for first 24 hours), 18.64 ± 0.21 days. Also, the “Life span % Change” value with C. elegans (Wild type (for eat-2 hormesis expt), Tm 0.125 vs 0 μg/ml) is reported as 15.83%; in the test with C. elegans (Wild type (for ire-1 hormesis expt), Tm 0.125 vs 0 μg/ml) it was 18.83%; in the test with C. elegans (Wild type, Tm 0.125 vs 0 μg/ml), 17.78%; in the test with C. elegans (eat-2 (ad1116), Tm 0.125 vs 0 μg/ml) it was −10.47%; with C. elegans (ire-1(v33), Tm 0.125 vs 0 μg/ml) it was −0.85%.
